From the Kinase Knowledgebase extract (Sharma et al. 2016) come the findings set out here.

Assay [1] concerns the target EGFR (Human), P00533 [T790M/L858R]. Kind of assay: Enzyme Assay.
In assay [2] the target is EGFR (human), P00533 [L858R]. Kind of assay: Enzyme Assay.
Assay [3] deals with EGFR (human), P00533 [WT].
EGFR (human), P00533 [WT], sequence (P00533 whole entry, looked up): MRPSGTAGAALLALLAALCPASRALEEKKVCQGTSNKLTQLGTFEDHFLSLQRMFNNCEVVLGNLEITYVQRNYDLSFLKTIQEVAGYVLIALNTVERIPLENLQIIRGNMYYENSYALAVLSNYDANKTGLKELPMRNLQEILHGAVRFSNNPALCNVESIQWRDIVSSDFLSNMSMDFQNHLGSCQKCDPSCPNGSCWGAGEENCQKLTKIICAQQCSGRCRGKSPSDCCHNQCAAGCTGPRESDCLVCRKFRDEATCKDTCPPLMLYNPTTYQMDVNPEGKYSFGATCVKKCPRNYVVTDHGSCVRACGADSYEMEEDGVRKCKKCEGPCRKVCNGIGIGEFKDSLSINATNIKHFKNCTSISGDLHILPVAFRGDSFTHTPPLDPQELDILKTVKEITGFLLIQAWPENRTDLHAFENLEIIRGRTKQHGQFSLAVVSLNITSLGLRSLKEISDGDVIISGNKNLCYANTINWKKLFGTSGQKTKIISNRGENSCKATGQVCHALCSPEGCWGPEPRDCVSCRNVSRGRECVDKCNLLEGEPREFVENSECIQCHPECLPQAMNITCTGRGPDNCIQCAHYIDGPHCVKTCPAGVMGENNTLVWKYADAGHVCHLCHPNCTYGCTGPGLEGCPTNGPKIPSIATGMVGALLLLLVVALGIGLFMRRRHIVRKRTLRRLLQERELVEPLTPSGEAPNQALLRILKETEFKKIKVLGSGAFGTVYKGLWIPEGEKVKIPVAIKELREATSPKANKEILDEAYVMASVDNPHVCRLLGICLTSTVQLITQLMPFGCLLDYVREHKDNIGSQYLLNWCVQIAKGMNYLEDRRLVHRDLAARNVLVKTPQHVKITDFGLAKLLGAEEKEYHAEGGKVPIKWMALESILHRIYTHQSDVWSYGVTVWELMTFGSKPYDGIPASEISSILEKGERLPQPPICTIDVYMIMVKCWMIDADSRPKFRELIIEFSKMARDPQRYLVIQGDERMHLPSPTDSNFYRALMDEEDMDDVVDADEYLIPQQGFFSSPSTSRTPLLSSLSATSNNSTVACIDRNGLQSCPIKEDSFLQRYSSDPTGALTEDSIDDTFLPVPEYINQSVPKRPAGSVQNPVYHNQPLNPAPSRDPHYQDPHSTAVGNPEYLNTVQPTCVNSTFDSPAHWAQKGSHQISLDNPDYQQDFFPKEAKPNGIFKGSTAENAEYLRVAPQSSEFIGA

EGFR (human), P00533 [L858R], sequence (P00533 whole entry L858R, looked up): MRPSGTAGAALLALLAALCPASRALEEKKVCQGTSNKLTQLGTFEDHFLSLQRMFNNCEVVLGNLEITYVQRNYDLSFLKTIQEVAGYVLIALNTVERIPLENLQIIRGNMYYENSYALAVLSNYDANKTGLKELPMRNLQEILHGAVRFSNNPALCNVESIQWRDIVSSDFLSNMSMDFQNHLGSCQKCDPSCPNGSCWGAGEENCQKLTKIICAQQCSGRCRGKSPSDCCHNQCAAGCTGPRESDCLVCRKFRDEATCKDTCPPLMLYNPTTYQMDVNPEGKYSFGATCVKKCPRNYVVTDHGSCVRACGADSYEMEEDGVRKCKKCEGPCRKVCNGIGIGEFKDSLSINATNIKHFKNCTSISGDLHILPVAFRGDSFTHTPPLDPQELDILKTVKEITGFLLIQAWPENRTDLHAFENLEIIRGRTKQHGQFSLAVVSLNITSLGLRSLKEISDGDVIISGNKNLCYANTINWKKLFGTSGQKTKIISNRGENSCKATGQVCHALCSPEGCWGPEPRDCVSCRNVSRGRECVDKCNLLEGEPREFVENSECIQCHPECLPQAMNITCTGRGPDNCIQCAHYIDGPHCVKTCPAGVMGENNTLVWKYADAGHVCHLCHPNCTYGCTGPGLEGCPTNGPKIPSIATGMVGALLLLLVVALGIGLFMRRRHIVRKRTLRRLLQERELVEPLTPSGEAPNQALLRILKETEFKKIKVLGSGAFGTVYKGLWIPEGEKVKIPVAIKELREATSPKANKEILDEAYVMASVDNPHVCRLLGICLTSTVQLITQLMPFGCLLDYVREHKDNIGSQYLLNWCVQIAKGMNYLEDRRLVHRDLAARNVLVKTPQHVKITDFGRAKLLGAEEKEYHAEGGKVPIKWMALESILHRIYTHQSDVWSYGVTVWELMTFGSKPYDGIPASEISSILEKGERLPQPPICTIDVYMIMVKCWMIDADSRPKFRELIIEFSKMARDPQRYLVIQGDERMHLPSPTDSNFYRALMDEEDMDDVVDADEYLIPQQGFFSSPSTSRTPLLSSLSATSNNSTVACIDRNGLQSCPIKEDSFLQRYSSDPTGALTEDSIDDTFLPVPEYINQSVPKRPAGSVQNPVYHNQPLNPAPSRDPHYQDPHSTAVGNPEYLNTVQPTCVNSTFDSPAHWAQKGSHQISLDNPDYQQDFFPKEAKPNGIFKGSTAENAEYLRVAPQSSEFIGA
EGFR (Human), P00533 [T790M/L858R], sequence (P00533 whole entry T790M/L858R, looked up): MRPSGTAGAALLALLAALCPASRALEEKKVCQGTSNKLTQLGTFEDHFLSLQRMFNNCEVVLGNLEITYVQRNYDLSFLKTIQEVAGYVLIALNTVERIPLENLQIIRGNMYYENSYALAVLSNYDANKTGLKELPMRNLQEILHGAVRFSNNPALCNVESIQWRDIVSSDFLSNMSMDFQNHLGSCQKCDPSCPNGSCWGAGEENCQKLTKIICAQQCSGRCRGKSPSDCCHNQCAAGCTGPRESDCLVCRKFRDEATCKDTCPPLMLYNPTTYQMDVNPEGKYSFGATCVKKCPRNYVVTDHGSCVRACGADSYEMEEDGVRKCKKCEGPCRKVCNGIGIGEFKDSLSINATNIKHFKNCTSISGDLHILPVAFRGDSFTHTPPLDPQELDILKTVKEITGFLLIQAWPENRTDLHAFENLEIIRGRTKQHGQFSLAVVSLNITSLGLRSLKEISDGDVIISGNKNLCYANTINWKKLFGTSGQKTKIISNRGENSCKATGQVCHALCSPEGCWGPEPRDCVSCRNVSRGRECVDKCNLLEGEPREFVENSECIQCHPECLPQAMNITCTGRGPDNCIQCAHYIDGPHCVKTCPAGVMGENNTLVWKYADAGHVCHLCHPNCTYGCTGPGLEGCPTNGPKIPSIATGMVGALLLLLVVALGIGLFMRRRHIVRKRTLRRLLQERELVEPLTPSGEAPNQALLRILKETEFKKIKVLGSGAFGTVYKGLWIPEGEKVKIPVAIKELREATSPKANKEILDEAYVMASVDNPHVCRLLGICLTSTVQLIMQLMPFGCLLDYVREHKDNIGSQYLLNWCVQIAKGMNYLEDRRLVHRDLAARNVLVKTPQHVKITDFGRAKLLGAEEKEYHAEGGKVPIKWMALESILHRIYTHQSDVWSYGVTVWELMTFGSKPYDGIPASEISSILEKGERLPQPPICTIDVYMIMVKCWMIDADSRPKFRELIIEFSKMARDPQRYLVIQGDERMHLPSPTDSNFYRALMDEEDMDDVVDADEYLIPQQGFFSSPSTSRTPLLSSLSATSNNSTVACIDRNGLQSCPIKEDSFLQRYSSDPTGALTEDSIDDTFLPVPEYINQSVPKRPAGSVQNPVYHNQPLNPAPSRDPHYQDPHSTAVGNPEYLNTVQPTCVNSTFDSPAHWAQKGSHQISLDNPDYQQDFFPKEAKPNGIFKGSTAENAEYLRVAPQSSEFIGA

Broadly, the IC50 is the concentration that inhibits the measured activity by half. Read a low IC50 as greater potency. Turning to `CN(C)[C@H]1CCN(Cc2ccc(C(=O)N[C@@H]3[C@H]4Oc5ccc(Oc6ccnc7c6CCC(=O)N7)cc5[C@@H]34)cc2C(F)(F)F)C1`, the IC50 in assay [1] and in assay [2] was 0.3 nM each time.
With `O=C(C=Cc1cccc(C(F)(F)F)c1)N[C@@H]1[C@H]2Oc3ccc(Oc4ccnc5c4CCC(=O)N5)cc3[C@@H]12`, the IC50 stood at 1140 nM in assay [1] and 68 nM in assay [2].
Consider `O=C1CCc2c(Oc3ccc4c(c3)[C@H]3[C@H](NC(=O)c5ccc(CN6CCN(CCO)CC6)c(C(F)(F)F)c5)[C@H]3O4)ccnc2N1`, for which the half-inhibitory concentration (IC50) worked out at 0.76 nM in assay [1] and 0.26 nM in assay [2].
For `Cc1cc(C(=O)N[C@@H]2[C@H]3Oc4ccc(Oc5ccnc6c5CCC(=O)N6)cc4[C@@H]23)ccc1CN1CCN(C)CC1`, the IC50 in assay [3] came out at 1.5 nM; in assay [1], 3.1 nM; in assay [2] it was 0.5 nM.
In assay [3], `CCCCCCCCCCCC(=O)N[C@@H]1[C@H]2Oc3ccc(Oc4ccnc5c4CCC(=O)N5)cc3[C@@H]12` returned a 50% inhibitory concentration (IC50) of 8.9 nM. This counts as single-digit nanomolar.
Consider `CN(C)C1CCN(Cc2ccc(C(=O)N[C@@H]3[C@H]4Oc5ccc(Oc6ccnc7c6CCC(=O)N7)cc5[C@@H]34)cc2C(F)(F)F)CC1`, for which the values for the IC50 in assay [1] and in assay [2] were 0.42 nM and 0.27 nM, respectively.
Take `CN1CCN(Cc2ccc(C(=O)N[C@@H]3[C@H]4Oc5ccc(Oc6ccnc7c6COC(=O)N7)cc5[C@@H]34)cc2C(F)(F)F)CC1`: the half-maximal inhibitory concentration (IC50) amounted to 0.49 nM in assay [1] and 0.29 nM in assay [2].
In the case of `CN(C)[C@@H]1CCN(Cc2ccc(C(=O)N[C@@H]3[C@H]4Oc5ccc(Oc6ccnc7c6CCC(=O)N7)cc5[C@@H]34)cc2C(F)(F)F)C1`, the results for the IC50 in assay [1] and in assay [2] were 3.1 nM and 0.67 nM, respectively.
On the same counts, the results for `CN1CCN(CCOc2ccc(C(=O)N[C@@H]3[C@H]4Oc5ccc(Oc6ccnc7c6CCC(=O)N7)cc5[C@@H]34)cc2C(F)(F)F)CC1` are 32 nM and 12 nM.
